The text below walks through data of publication PMC8794255, “Small molecule inhibitor of Igf2bp1 represses Kras and a pro-oncogenic phenotype in cancer cells” (RNA Biology, 2021).

Test [1] has as its system Igf2bp1-cMyc RNA interaction. Also noted: method as in PMID 28846937. Particulars: fluorescence polarization; cited from earlier work. For orientation: In fluorescence polarisation assays a small probe gives low polarisation when free and higher when bound to something large.
On the set-up of test [2]: method as in PMID 28846937. The following applies: cited from earlier work.
The target in test [3] is T1, Igf2bp1 (Homo sapiens, UniProt Q9NZI8).
T1 construct: Recombinant full-length Igf2bp1 protein was labelled with RED-tris-NTA dye; made in house
As to the kind of experiment: Fluorescence polarization (FP) assay of Igf2bp1 binding to fluorescent Kras 6 RNA. Particulars: FP dose response; read-out: IC50, inhibition of Igf2bp1 binding to Kras 6 RNA. How it is done: For the small-molecule screen, compounds were obtained from the collection maintained at the Grand Israel National Center for Personalized Medicine, consisting of molecules purchased from commercial vendors. Labelled RNA (10 nM) was incubated with recombinant Igf2bp1 protein (400 nM) in FAM-RNA buffer (10 mM Tris pH 8.0, 75 mM KCl, 0.5 mM EDTA, 1 mM DTT, 0.0188 U/μL RNAsin, 0.0005 μg/mL heparin, 0.0001 μg/μL tRNA, 0.01% Triton X-100, 3 mM MgCl2, 0.05% IGEPAL) at room temperature for 15 min. 7 μL of this reaction mix was aliquoted with GNF WDII (USA) into wells of 1536 well plates, with a final concentration of 20 μM compound or DMSO. The plates were spun down and read in a BMG Pherastar FS (Germany) plate reader, in FP mode with a 485/520/520 polarization filter, calibrated to 35 mP for free fluorescein with similar total intensity as experimental samples. […]
To determine the quality of our screening assay, the Z’ factor for each plate was calculated with a Z’ factor greater than 0.5 indicating a robust assay suitable for high throughput screening. Compounds that altered the overall fluorescence intensity compared to controls were considered auto florescence and excluded from further analysis. […] Any small molecule that causes a change of more than three standard deviations from the mean is determined appropriate for further investigation.

In test [4] the target is T1, Igf2bp1. Kind of test: EMSA, Igf2bp1 with fluorescent Kras 6 RNA. The test is classed as binding. The following applies: compound pre-incubated with protein; 7773 at 200 μM. How it is done:
Recombinant Igf2bp1 protein was serially diluted (1:1) starting at an initial concentration of 10,000 nM in 0.75 μg heparin, in a total volume of 13 μL. […] 2 μL RNA was added to each well protein sample, and after a 30 min incubation at room temperature in the dark, loading dye (3 μL) (30% glycerol, 0.01% bromocresol green) was added to each mixture. For compound inhibition experiments, compounds or DMSO were incubated for 4 hours at 37 °C with the protein prior to adding the RNA. Samples were electrophoresed on native TBE polyacrylamide gels (6% acrylamide/bis-acrylamide 37.5:1, 0.5X TBE) that had been pre-run for 30 min. Gels were run at 120 V in 0.5X TBE, at 4°C in the dark. They were then carefully washed and scanned using a Typhoon FLA9500 imager using Alexa 488 laser and LPB1/2 filter. Igf2bp1-RNA complex formation was quantified using the ImageJ software. Prism6 software was used for curve fitting and KD calculations.

Test [5] addresses T1, Igf2bp1. Kind of test: Microscale thermophoresis (MST), full-length Igf2bp1. The following applies: full-length protein, read-out: KD of compound binding to Igf2bp1. How it is done:
Recombinant full-length Igf2bp1 protein was labelled with RED-tris-NTA dye using a Monolith NT His-Tag Labelling Kit (NanoTemper) while RRM12, KH12 and KH34 di-domain peptides were labelled using the Protein Labelling Kit RED NHS 2nd generation (NanoTemper). Labelled proteins were spun at 15,000 g for 5 min to eliminate aggregates. All samples were 2X labelled protein mix of Igf2bp1 (200 nM) in PBST and were combined (1:1) with serial dilutions of compound or Kras6 RNA in binding buffer (10mMTris pH = 7.5, 100 mM NaCl, 0.1 mM EDTA, 0.06% IPEGAL, 0.02 μg/μL tRNA, 2 mM DTT, 0.1 μg/μL heparin) in final volume of 20 μL, room temperature for 15 min. Samples were then loaded into standard capillaries (NanoTemper) and read in the Monolith NT.115 scanner (NanoTemper) using the red filter with reading conditions of 95% LED power and 40% MST power, 5 sec fluorescence before, 30 sec MST on, 5 sec fluorescence after and 25 sec delay between samples. Results were analysed using the MO Control software (NanoTemper) for curve fitting to KD.

Molecules are shown by their SMILES. Several values for one entry are separate records, joined by “and”; a condition that tells them apart may be missing. Identical values can stand only once. Bounds are passed on as bounds.

As a reminder, the IC50 is the midpoint of a concentration-inhibition curve. The Kd is a measure of binding affinity in units of concentration.

T1 sequence (Q9NZI8 whole entry): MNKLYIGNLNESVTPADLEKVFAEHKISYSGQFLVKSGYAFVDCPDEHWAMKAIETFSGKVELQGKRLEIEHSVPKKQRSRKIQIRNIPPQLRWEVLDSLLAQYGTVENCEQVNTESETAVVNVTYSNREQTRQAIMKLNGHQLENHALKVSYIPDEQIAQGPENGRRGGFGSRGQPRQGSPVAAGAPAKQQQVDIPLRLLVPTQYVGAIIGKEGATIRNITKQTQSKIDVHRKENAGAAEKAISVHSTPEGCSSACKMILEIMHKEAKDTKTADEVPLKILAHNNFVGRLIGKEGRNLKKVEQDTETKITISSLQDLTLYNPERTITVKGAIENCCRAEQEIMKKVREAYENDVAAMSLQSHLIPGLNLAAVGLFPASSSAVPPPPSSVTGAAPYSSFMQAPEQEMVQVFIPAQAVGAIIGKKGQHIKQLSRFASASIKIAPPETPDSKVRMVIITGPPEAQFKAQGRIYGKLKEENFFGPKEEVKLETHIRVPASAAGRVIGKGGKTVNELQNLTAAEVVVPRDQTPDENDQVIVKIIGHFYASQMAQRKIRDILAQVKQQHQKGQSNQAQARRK

For `NC(=O)c1ccccc1N=Cc1ccc(Br)s1` [BTYNB], the “Inhibition of Igf2bp1-cMyc RNA interaction in vitro” value in test [1] is recorded as “inhibited Igf2bp1-cMyc RNA interaction in vitro”. The “Effect on cell proliferation” value in test [2] is given as “appears to inhibit cell proliferation”.
`O=C(c1cccc(-n2cnnn2)c1)N1CCCC(Nc2ccc3c(c2)OCO3)C1` (centres unmarked) [compound 393]: on Igf2bp1 [3], the IC50 is roughly 90 µM. Also, the “Inhibition of Igf2bp1 binding to Kras 6 RNA (gel shift)” value on Igf2bp1 [4] was “lower, but observable, inhibition of RNA binding”. Besides, at Igf2bp1 [5], the Kd was > 100 µM and ~120 µM.
